Test system: S. bombicola Δcyp52M1Δfao1 strain
Experiment: shake flask cultivation fed with primary alcohols, viability as colony forming units
Assay type: cell-based, Starmerella bombicola
Conditions: alcohol added after 48 h of cultivation; in contrast to all other fed substrates (FIG. 8A)
Procedure: Production experiments using S. bombicola were performed using the production medium described by Lang et al., (2000). For shake flask experiments, 5 mL tube cultures were set up 24 h (30° C.), before transferring to shake flasks (4% inoculation). Production experiments were executed with feeding of fatty alcohols: oleyl alcohol, stearyl alcohol, lauryl alcohol, myristyl alcohol or cetyl alcohol which were added after 48 h of cultivation. The Δcyp52M1Δfao1 strain was also assessed without addition of the hydrophobic alcohol. For every production experiment, cultivation was stopped when glucose was depleted from the medium. […]
Optical density (OD) of cultures was measured at 600 nm using the Jasco V 630 Bio spectrophotometer (Jasco Europe) of 1 mL samples diluted with physiological solution (9 g/L NaCl). The viability of yeast cells in cultivation experiments was assessed by determining colony forming units (CFUs) which were expressed as the average logarithm of CFUs per culture volume as log(CFU/mL) (Saerens, Saey, et al., 2011). Alternatively, Cell Dry Weight (CDW) was determined by centrifuging 1 mL fermentation samples at 14000 rpm for 5 min in tared Eppendorf tubes, and subsequently washing the cell pellets twice with 1 mL physiological solution. […] The CDW (g/L) was calculated after subtraction of the empty weight of the Eppendorf tube.

Q: With CCCCCCCCCCCCO [lauryl alcohol] as the compound, how does the CFUs read?
A: significant drop

Source: patent publication US20230175032A1, “EFFICIENT SYNTHESIS OF OMEGA-GLYCOSIDES AND ALKYL GLYCOSIDES” (AMPHISTAR, priority 2020, published 2023)
